The text below walks through data of ChEMBL document CHEMBL5465560, “Selectivity Literature for EUbOPEN Chemogenomic Library” (2024).

Assay [1] addresses T1, Dual specificity mitogen-activated protein kinase kinase 5 (Homo sapiens) (UniProt Q13163).
T1 sequence (whole entry): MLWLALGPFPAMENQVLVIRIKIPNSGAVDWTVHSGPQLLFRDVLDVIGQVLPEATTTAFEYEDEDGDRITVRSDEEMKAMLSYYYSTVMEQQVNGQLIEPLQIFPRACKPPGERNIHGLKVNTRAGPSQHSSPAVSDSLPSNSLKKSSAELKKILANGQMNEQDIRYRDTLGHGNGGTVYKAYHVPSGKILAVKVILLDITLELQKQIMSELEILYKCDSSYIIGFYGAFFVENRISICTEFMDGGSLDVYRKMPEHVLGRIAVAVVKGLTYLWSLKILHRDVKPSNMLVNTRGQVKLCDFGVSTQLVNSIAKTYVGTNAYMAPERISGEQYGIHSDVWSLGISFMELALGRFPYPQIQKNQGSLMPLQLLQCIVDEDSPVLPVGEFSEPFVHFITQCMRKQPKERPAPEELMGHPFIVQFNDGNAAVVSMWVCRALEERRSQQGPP
The assay is described as follows: Selectivity interaction (KinomeScan (DiscoverX)) EUB0000607a MAP2K5. The note with it: at 10 µM.

Assay [2] addresses Receptor tyrosine-protein kinase erbB-4 (Homo sapiens, UniProt Q15303). To be noted: at 10 µM.
Assay [3] deals with Serine/threonine-protein kinase 10 (Homo sapiens) (UniProt O94804). The assay is described as follows: Selectivity interaction (KinomeScan (DiscoverX)) EUB0001079a STK10. To be noted: at 1 µM.
Assay [4] addresses Serine/threonine-protein kinase 32A (Homo sapiens) (UniProt Q8WU08). The assay is described as follows: Selectivity interaction (KinomeScan (DiscoverX)) EUB0001079a STK32A. The note with it: at 1 µM.
In assay [5] the target is Serine/threonine-protein kinase PLK1 (Homo sapiens, UniProt P53350). The assay is described as follows: Selectivity interaction (ActivX KiNativ screen (kinase selectivity in THP-1 cell lysates)) EUB0000639a PLK1. The format is subcellular. The note with it: lysate, at 0.2 µM.
The target of assay [6] is Activin receptor type-2A (Homo sapiens) (UniProt P27037). The assay is described as follows: Selectivity interaction (ProQinase) EUB0000171b ACVR2A.
Assay [7] deals with T2, Interleukin-1 receptor-associated kinase 4 (Homo sapiens) (UniProt Q9NWZ3).
T2 sequence (whole entry): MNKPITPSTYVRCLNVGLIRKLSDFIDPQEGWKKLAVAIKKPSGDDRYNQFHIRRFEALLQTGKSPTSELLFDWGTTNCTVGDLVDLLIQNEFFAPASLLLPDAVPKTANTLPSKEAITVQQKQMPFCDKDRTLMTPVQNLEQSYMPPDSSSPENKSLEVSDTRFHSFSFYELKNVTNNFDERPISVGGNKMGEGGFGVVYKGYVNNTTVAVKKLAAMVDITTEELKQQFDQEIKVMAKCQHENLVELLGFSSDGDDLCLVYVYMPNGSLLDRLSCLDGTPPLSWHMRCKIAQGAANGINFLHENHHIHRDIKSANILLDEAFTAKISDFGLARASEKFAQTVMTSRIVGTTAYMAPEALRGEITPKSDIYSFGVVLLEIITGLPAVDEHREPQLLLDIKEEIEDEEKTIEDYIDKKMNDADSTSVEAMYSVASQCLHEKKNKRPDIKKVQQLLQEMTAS
The assay is described as follows: Selectivity interaction (KinomeScan (DiscoverX)) EUB0001550a IRAK4. To be noted: at 1 µM.

The target in assay [8] is Serine/threonine-protein kinase 35 (Homo sapiens) (UniProt Q8TDR2). The assay is described as follows: Selectivity interaction (KinomeScan (DiscoverX)) EUB0000618a STK35. To be noted: at 10 µM.
Assay [9] deals with CDK6/Cyclin D (Homo sapiens) (UniProt P24385+P30281+Q00534+P30279). The assay is described as follows: Selectivity interaction (Upstate Kinase Profiler service (Millipore)) EUB0000056c CDK6. It is filed as protein-complex assay. The note with it: at 1 µM.
In assay [10] the target is T3, Phosphatidylinositol 4,5-bisphosphate 3-kinase catalytic subunit delta isoform (Homo sapiens) (UniProt O00329).
T3 sequence (whole entry): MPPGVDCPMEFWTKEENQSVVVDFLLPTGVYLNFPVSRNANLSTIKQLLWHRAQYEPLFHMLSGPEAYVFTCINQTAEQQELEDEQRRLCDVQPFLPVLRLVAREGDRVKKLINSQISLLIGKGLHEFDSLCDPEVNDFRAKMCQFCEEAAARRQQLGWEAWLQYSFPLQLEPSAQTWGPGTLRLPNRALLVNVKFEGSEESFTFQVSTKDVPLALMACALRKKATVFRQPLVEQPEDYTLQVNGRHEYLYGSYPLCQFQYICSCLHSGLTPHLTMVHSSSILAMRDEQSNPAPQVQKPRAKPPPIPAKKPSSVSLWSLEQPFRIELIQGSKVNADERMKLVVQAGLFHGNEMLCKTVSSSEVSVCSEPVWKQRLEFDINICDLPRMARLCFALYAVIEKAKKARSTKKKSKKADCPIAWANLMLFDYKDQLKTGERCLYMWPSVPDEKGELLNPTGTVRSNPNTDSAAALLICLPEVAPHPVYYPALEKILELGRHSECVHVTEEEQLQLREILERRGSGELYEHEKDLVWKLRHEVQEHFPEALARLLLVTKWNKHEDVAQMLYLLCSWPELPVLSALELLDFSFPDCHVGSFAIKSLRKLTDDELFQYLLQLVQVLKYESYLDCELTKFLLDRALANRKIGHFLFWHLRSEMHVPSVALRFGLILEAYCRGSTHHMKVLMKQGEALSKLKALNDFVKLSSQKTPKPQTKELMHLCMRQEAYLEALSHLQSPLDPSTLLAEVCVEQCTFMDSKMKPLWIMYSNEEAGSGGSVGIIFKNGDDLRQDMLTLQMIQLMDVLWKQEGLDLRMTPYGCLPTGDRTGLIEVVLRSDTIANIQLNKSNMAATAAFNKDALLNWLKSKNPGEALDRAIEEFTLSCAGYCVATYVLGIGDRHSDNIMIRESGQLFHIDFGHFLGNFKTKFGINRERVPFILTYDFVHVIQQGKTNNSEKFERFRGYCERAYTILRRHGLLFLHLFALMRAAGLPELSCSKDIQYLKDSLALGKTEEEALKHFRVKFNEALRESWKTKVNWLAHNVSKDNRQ
The assay is described as follows: Selectivity interaction (KinomeScan (DiscoverX)) EUB0000595a PIK3CD. The note with it: at 10 µM.

Activin receptor type-2A (Homo sapiens), sequence (P27037 whole entry): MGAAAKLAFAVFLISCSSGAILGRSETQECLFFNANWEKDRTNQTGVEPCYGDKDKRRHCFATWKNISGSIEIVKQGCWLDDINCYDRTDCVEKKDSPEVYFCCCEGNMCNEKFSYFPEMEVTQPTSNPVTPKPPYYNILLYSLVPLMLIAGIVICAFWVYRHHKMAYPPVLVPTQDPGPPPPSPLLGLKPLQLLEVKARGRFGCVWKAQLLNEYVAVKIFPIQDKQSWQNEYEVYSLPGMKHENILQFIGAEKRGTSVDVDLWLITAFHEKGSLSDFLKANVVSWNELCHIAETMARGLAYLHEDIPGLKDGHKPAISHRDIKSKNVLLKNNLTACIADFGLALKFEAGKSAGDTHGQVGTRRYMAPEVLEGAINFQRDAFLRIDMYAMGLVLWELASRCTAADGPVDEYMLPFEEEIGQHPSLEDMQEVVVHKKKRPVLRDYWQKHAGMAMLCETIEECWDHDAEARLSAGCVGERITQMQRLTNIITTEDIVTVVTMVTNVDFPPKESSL
Serine/threonine-protein kinase 32A (Homo sapiens), sequence (Q8WU08 whole entry): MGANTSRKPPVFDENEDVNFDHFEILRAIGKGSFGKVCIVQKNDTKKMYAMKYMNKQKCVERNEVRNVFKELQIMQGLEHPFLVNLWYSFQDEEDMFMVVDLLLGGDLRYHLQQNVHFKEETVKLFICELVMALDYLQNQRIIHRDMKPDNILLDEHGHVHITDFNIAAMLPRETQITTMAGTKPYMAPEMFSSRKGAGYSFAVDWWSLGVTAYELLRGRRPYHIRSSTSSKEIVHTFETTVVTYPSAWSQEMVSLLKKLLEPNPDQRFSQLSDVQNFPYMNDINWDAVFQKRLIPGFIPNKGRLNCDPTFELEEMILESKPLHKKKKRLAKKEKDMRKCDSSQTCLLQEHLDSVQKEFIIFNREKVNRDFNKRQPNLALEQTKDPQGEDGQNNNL
Serine/threonine-protein kinase 10 (Homo sapiens), sequence (O94804 whole entry, looked up): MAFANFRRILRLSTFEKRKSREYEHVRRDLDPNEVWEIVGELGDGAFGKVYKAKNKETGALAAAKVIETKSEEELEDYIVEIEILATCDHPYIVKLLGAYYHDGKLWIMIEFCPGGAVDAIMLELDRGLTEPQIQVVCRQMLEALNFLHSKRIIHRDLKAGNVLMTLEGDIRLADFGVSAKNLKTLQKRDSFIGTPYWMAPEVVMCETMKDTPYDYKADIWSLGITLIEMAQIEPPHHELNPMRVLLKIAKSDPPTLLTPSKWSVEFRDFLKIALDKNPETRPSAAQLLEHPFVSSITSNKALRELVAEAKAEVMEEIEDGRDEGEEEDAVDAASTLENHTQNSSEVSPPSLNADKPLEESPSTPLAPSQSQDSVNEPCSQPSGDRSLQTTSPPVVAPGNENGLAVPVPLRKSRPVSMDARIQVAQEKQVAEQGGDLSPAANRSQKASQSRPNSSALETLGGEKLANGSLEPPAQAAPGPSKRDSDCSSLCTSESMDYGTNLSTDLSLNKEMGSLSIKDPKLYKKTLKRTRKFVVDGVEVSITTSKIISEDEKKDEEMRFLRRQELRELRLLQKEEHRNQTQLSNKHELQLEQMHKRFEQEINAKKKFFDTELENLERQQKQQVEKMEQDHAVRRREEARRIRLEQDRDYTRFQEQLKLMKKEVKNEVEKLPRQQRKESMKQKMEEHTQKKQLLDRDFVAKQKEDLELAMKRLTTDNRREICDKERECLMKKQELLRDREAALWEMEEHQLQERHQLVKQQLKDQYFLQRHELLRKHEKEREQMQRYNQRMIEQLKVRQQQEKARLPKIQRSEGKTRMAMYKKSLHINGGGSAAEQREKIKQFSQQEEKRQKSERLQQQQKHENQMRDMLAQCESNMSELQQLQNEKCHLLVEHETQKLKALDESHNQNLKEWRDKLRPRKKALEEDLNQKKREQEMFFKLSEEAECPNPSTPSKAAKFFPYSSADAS
Serine/threonine-protein kinase PLK1, sequence (P53350 whole entry): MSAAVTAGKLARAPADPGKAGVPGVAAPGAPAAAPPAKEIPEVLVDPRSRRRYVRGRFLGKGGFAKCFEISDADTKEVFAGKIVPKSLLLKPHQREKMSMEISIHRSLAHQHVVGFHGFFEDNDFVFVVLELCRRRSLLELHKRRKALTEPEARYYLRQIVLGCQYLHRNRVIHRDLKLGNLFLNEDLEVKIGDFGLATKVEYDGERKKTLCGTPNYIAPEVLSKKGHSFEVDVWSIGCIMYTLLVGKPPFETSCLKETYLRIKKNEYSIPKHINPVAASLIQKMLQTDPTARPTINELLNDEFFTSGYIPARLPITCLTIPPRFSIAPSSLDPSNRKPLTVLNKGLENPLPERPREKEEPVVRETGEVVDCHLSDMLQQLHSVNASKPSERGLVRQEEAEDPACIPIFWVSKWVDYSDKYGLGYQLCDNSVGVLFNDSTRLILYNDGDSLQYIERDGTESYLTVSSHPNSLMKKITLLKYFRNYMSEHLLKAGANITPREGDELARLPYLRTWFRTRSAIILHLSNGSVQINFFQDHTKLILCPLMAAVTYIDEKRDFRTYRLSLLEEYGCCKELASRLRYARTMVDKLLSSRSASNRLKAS
CDK6/Cyclin D (Homo sapiens), sequence (P24385 whole entry, looked up, canonical isoform): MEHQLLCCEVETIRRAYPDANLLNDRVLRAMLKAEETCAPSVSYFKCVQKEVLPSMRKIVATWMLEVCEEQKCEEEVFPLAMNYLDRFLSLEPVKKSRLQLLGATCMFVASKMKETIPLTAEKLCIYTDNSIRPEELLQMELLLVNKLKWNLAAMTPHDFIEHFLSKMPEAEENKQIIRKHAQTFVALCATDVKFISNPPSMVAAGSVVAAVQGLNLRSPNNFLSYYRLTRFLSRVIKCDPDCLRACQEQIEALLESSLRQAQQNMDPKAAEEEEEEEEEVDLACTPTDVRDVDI
CDK6/Cyclin D (Homo sapiens), sequence (P30279 whole entry, looked up, canonical isoform): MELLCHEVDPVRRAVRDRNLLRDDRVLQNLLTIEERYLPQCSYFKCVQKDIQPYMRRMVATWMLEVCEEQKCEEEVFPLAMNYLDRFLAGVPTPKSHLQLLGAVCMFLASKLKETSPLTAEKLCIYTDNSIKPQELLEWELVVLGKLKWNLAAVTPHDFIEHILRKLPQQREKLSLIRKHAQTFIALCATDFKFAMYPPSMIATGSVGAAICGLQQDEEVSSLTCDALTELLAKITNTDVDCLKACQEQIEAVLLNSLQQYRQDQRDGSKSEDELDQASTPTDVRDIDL
CDK6/Cyclin D (Homo sapiens), sequence (P30281 whole entry, looked up, canonical isoform): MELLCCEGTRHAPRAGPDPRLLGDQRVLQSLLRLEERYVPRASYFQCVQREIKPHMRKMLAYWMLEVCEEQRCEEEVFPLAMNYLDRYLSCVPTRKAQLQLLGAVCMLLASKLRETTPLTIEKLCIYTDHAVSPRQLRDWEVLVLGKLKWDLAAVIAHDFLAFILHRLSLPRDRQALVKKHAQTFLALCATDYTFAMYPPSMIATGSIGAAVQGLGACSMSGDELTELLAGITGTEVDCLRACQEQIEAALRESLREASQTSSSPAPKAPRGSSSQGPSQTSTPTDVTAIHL
CDK6/Cyclin D (Homo sapiens), sequence (Q00534 whole entry, looked up, canonical isoform): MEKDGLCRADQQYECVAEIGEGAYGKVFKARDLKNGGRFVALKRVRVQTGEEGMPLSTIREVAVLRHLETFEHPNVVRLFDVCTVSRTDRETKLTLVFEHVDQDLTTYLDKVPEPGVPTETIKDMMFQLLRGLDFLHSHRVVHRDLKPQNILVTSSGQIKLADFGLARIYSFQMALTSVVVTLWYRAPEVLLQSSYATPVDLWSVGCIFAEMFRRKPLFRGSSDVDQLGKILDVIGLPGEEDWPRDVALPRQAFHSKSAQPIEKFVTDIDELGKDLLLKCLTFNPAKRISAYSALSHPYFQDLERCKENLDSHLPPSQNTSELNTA
Serine/threonine-protein kinase 35 (Homo sapiens), sequence (Q8TDR2 whole entry): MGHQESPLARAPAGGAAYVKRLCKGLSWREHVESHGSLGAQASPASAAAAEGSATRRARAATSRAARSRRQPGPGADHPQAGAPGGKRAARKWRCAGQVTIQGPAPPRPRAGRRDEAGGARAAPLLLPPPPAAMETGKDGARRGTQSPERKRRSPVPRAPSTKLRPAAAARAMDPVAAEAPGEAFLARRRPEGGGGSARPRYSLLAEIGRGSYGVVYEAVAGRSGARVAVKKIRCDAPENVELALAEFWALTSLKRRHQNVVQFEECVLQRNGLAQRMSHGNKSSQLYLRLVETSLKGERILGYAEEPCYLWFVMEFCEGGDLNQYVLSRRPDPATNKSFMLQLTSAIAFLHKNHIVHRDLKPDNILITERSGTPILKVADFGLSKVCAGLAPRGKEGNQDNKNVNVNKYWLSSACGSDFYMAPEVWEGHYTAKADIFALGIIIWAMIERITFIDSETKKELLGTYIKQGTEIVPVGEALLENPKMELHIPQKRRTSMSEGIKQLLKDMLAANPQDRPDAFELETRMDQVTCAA

The compound `CNC(=O)Nc1ccc(-c2nc(N3CC4CCC(C3)O4)c3cnn(C4CCC5(CC4)OCCO5)c3n2)cc1` yielded a % of control in [1] of 93%.
The compound `Cc1cc([C@@H](C)Nc2ccccc2C(=O)O)c2nc(N3CCOCC3)cc(=O)n2c1` [AZD-6482] displayed a % of control in [2] of 100%.
As for `Nc1cnc(N2CCc3cc(S(=O)(=O)Nc4c(F)cc(Cl)cc4F)cc(N4CCCC4=O)c32)nc1` [TP-020n], the % of control was found to be 100% in assay [3] and 80% in assay [4].
As for `CC[C@@H]1[C@H](F)C(=O)N[C@@H]1COc1nccc2cc(C(N)=O)c(OC)cc12` [ZIMLOVISERTIB], the % of inhibition in assay [5] was -0.2%.
For the compound `C=CC(=O)Nc1cccc(C(=O)Nc2ccc(Nc3cc(-c4[nH]c(SC)nc4C)ccn3)cc2)c1`, the % of control was determined as 81% in [6] (at 1 µM) and 80% in [6] (at 5 µM).
Turning to `CN(C)CC#Cc1ccc2[nH]c3c(c2c1)-c1nc(N)ncc1CCC3`, the % of control in assay [7] is 21%.
With `O[C@H]1CC[C@H](Nc2ncc3nc(Nc4c(F)cc(F)cc4F)n([C@H]4CCOC4)c3n2)CC1`, in assay [8], the % of control came to 100%.
Turning to `Cc1ccc(-c2ccc3c(ccc4sc5c(c43)NC[C@@H](C)NC5=O)n2)cn1`, in assay [9], the % of inhibition is 5%.
For the compound `COCC(=O)NC/C=C/c1ccc2ncnc(Nc3ccc(Oc4ccc(C)nc4)c(C)c3)c2c1` [CP-724714], in assay [10], the % of control was 100%.
